Test results as given in patent US6538006B1, “Retroviral protease inhibitors” (Pharmacia Corporation, priority 1998, dated 2003).

Legend:
HIV protease = molecular target: T1, HIV protease (Human immunodeficiency virus type 1 group M subtype B, UniProt P04585); experiment: HIV protease enzyme assay (fluorogenic substrate); assay type: biochemical; settings: for IC50: HIV protease 12.3 nanomolar, substrate 80 μM, pH 6.4, read-out: Enzyme Inhibition (IC50); for inhibition at 10 µM: read-out: inhibition of the HIV enzyme
T1 construct: final enzyme concentration of 12.3 nanomolar, based on a molecular weight of 10,780
Method: The calculated IC50 (inhibiting concentration 50%, i.e., the concentrations at which the inhibitor compound reduces enzyme activity by 50%) values are shown in Table 1. The enzyme method is described below. The substrate is 2-aminobenzoyl-Ile-Nle-Phe(p-NO2)-Gln-ArgNH2. The positive control is MVT-101 (Miller, M. et al, Science, 246, 1149 (1989)]. The assay conditions are as follows:
Assay buffer: 20 mM sodium phosphate, pH 6.4
The above described substrate is dissolved in DMSO, then diluted 10 fold in assay buffer. Final substrate concentration in the assay is 80 μM.
HIV protease is diluted in the assay buffer to a final enzyme concentration of 12.3 nanomolar, based on a molecular weight of 10,780.
The final concentration of DMSO is 14% and the final concentration of glycerol is 18%. The test compound is dissolved in DMSO and diluted in DMSO to 10× the test concentration; 10 μL of the enzyme preparation is added, the materials mixed and then the mixture is incubated at ambient temperature for 15 minutes. The enzyme reaction is initiated by the addition of 40 μL of substrate. The increase in fluorescence is monitored at 4 time points (0, 8, 16 and 24 minutes) at ambient temperature. Each assay is carried out in duplicate wells.

HIV-1 = experiment: CEM cell assay, HIV inhibition in acutely infected cells (MTT); assay type: cell-based; settings: Human immunodeficiency virus 1, CCRF-CEM, 168 h; CEM cells infected with HIV-1, 7 days, reduces cytopathicity by 50%; read-out: Antiviral Activity in Cell Culture (EC50)
Method: (§1) The effectiveness of the compounds tested in Part A was also determined in a CEM cell assay. The HIV inhibition assay method of acutely infected cells is an automated tetrazolium based calorimetric assay essentially that reported by Pauwles et al, J. Virol. Methods 20, 309-321 (1988). Assays were performed in 96-well tissue culture plates. CEM cells, a CD4^+ cell line, were grown in RPMI-1640 medium (Gibco) supplemented with a 10% fetal calf serum and were then treated with polybrene ([…]). An 80 μL volume of medium containing 1×10^4 cells was dispensed into each well of the tissue culture plate. To each well was added a 100 μL volume of test compound dissolved in tissue culture medium (or medium without test compound as a control) to achieve the desired final concentration and the cells were incubated at 37° C. for 1 hour. A frozen culture of HIV-1 was diluted in culture medium to a concentration of 5×10^4 TCID50 per mL (TCID50=the dose of virus that infects 50% of cells in tissue culture), and a 20 μL volume of the virus sample (containing 1000 TCID50 of virus) was added to wells containing test compound and to wells containing only medium (infected control cells). Several wells received culture medium without virus (uninfected control cells). Likewise, the intrinsic toxicity of the test compound was determined by adding medium without virus to several wells containing test compound. In summary, the tissue culture plates contained the following experiments:
(§2) In experiments 2 and 4, the final concentrations of test compounds were 1, 10, 100 and 500 μg/mL. Either azidothymidine (AZT) or dideoxyinosine (ddI) was included as a positive drug control. […] DMSO was added to all control wells at an appropriate concentration.
(§3) Following the addition of virus, cells were incubated at 37° C. in a humidified, 5% CO2 atmosphere for 7 days. Test compounds could be added on days 0, 2 and 5 if desired. On day 7, post-infection, the cells in each well were resuspended and a 100 μL sample of each cell suspension was removed for assay. A 20 μL volume of a 5 mg/mL solution of 3-(4,5-dimethylthiazol-2-yl)-2,5-diphenyltetrazolium bromide (MTT) was added to each 100 μL cell suspension, and the cells were incubated for 4 hours at […] in a 5% CO2 environment. […] To each sample was added 100 μL of 10% sodium dodecylsulfate in 0.01 N HCl to lyse the cells, and samples were incubated overnight. The absorbance at 590 nm was determined for each sample using a Molecular Devices microplate reader. Absorbance values for each set of wells is compared to assess viral control infection, uninfected control cell response as well as test compound by cytotoxicity and antiviral efficacy.
(§4) The calculated EC50 (effective concentration 50%, i.e., the concentration at which the inhibitor compound reduces cytopathicity by 50%) and TD50 (toxic dose 50%, i.e., the concentration at which the inhibitor compound reduces cellular viability by 50%) values for these compounds are also shown in Table 1.

CEM cells = experiment: CEM cell assay, intrinsic toxicity of test compound (MTT, no virus); assay type: cell-based; settings: CEM cells without virus, reduces cellular viability by 50%
Method: as §1, §2, §3, §4

SMILES | IC50 (HIV protease) [nM] | EC50 (HIV-1) [nM] | Cell Toxicity (TD50) (CEM cells) | inhibition at 10 µM (HIV protease) [%]
C[C@@H](C(=O)N[C@@H](Cc1ccccc1)[C@H](O)CN1C[C@H]2CCCC[C@H]2C[C@H]1C(=O)NC(C)(C)C)C(C)(C)CN | 9 | 98 | 59,000 nM | 
C[C@@H](C(=O)N[C@@H](Cc1ccccc1)[C@H](O)CN1C[C@H]2CCCC[C@H]2C[C@H]1C(=O)NC(C)(C)C)C(C)(C)C(=O)O | 23 | 184 | 50,000 nM | 
C[C@H](CS(C)(=O)=O)C(=O)N[C@@H](Cc1ccccc1)[C@H](O)CN1C[C@H]2CCCC[C@H]2C[C@H]1C(=O)NC(C)(C)C | 7 | 42 | 58,000 nM | 
C[C@H](CS(C)(=O)=O)C(=O)N[C@@H](Cc1ccccc1)[C@H](O)CN1C[C@H]2CCCC[C@H]2C[C@H]1C(=O)NC(C)(C)C (relative stereo) [Example 6, 3-Isoquinolinecarboxamide, N-(1,1-Dimethylethyl)decahydro-2-[2-hydroxy-3-[[2-methyl-3-(methylsulfonyl)-1-oxopropyl]amino]-4-phenylbutyl]-, [3S-[2(2S*,3S*(R*)],3α,4aβ,8aβ]]-] |  |  |  | 3 to 100
COc1ccc(COC(=O)NC[C@@H](C)C(=O)N[C@@H](Cc2ccccc2)[C@H](O)CN2C[C@H]3CCCC[C@H]3C[C@H]2C(=O)NC(C)(C)C)cc1 | 2 | 52 | 2,000 nM | 
COc1ccc(COC(=O)NC[C@@H](C)C(=O)N[C@@H](Cc2ccccc2)[C@H](O)CN2C[C@H]3CCCC[C@H]3C[C@H]2C(=O)NC(C)(C)C)cc1 (relative stereo) [Example 4, Carbamic Acid, [3-[[3-[3-[[(1,1-Dimethylethyl)-amino]carbonyl]octahydro-2(1H)-isoquinolinyl]-2-hydroxy-1-(phenylmethyl)propyl]amino]-2-methyl-3-oxopropyl]-, (4-Methoxyphenyl)methyl Ester, [3S-[2(1R*,(S*),2S*),3α,4aβ,8aβ]]-] |  |  |  | 3 to 100
CC(C)(C)NC(=O)[C@@H]1C[C@@H]2CCCC[C@@H]2CN1C[C@@H](O)[C@H](Cc1ccccc1)NC(=O)C[C@H](NC(=O)c1ccc2ccccc2n1)C(N)=O (relative stereo) [Example 10, Butanediamide, N^4-[3-[3-[[((1,1-Dimethylethyl)-amino]carbonyl]octahydro-2(1H)-isoquinolinyl]-2-hydroxy-1-(phenylmethyl)propyl]-2-[(2-quinolinylcarbonyl)amino]-, [3S[2[1R*(R*),2S*],3α,4aβ,8aβ]]-] |  |  |  | 3 to 100
C[C@@H](C(=O)N[C@@H](Cc1ccccc1)[C@H](O)CN1C[C@H]2CCCC[C@H]2C[C@H]1C(=O)NC(C)(C)C)C(C)(C)C(N)=O (relative stereo) [Example 12, Butanamide, 4-[[3-[3-[[(1,1-Dimethylethyl)-amino]carbonyl]octahydro-2(1H)-isoquinolinyl]-2-hydroxy-1-(phenylmethyl)propyl]amino]-2,2,3-trimethyl-4-oxo-, [3S-[2[1R*(S*),2S*],3α,4aβ,8aβ]]-] |  |  |  | 3 to 100
CC(C)(C)NC(=O)[C@@H]1C[C@@H]2CCCC[C@@H]2CN1C[C@@H](O)[C@H](Cc1ccccc1)NC(=O)C[C@H](NC(=O)c1ccc2ccccc2n1)C(N)=O | 9 | 37 | 5,000 nM | 
C[C@@H](C(=O)N[C@@H](Cc1ccccc1)[C@H](O)CN1C[C@H]2CCCC[C@H]2C[C@H]1C(=O)NC(C)(C)C)C(C)(C)C(=O)O (relative stereo) [Example 12C, butanoic acid, 4-[[3-[3-[[(1,1-dimethylethyl)amino]carbonyl]octahydro-2(1H)-isoquinolinyl]-2-hydroxy-1-(phenylmethyl)propyl]amino]-2,2,3-trimethyl-4-oxo-, [3S-[2[1R*(S*),2S*],3α,4aβ,8aβ]]-] |  |  |  | 3 to 100
